This is an account of results in publication PMC7335359, “Design and Synthesis of Dihydroxamic Acids as HDAC6/8/10 Inhibitors” (Chemmedchem, 2020).

Assay [1] addresses T1, HDAC8 (Homo sapiens, UniProt Q9BY41).
T1 construct: purchased BPS Bioscience 50008
T1 sequence (Q9BY41 1-377): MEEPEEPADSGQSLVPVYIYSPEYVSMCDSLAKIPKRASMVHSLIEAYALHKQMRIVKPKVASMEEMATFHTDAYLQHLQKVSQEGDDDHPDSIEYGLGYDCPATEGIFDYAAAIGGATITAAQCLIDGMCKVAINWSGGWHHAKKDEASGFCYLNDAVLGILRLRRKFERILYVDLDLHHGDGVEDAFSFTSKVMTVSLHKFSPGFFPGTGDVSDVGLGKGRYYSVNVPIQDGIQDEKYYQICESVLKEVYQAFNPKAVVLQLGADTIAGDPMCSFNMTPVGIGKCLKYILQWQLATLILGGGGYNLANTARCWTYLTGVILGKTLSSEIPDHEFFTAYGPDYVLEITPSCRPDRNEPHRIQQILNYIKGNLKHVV
The assay can be described thus: HDAC-Glo I/II enzymatic assay, HDAC8. The format is biochemical. As to conditions: read-out: HDAC8 pIC50 (converted). The procedure: Inhibitors were tested at eight serial dilutions in triplicate ranging from 50 μM–86,7 pM (HDAC6) or 100 μM–8,67 nM (HDAC1,2,3,8). Drug dosing was performed from 10 mM and 0.1 mM DMSO stock solutions with a D300e Digital Dispenser (Tecan). HDACs (7 ng/mL for HDAC1, 10 ng/mL for HDAC2, 200 ng/mL for HDAC3/Ncor2 complex, 100 ng/mL for HDAC6, 200 ng/mL for HDAC8) and inhibitors were incubated together for 30 min at room temperature. After addition of the HDAC‐Glo™ I/II reagent, plates were shaken (800 rpm orbital shaker, 30 s), centrifuged (300 g, 1 min) and incubated at room temperature for 30 min. Luminescence was detected with a CLARIOstar (BMG Labtech) plate reader.

The target of assay [2] is T2, HDAC10 (Homo sapiens, UniProt Q969S8).
T2 sequence (Q969S8 1-669): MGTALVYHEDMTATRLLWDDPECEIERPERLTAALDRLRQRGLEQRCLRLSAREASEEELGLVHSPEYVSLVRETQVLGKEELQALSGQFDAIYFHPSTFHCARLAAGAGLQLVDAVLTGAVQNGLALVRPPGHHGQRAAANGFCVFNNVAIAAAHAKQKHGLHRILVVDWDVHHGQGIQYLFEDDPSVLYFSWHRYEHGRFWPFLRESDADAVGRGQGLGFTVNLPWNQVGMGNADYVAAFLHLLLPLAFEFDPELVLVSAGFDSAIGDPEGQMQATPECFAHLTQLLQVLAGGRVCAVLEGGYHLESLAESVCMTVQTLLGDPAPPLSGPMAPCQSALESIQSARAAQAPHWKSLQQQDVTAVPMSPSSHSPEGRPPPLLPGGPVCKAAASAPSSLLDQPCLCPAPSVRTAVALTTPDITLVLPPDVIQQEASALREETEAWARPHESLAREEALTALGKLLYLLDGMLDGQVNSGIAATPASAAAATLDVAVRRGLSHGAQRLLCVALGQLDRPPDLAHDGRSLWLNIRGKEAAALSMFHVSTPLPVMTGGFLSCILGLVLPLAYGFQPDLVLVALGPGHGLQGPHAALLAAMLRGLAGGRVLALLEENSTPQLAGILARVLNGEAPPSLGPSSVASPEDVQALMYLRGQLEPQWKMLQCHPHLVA
The assay can be described thus: ligand displacement TR-FRET assay, HDAC10. The format is binding. Also noted: host or cells: Sf21 insect cells (baculovirus). Particulars: ligand-displacement FRET assay; read-out: HDAC10 pIC50 (converted). The method, then:
Expression and purification of TwinStrepII‐GST‐HDAC10: A synthetic gene encoding TwinStrepII‐GST‐HDAC10 (human) was ordered from GeneArt (Thermo Fischer Scientific) and subcloned into the pFastBac1 vector. The resulting construct was used for transposition in E. coli DH10EMBacY cells. The isolated bacmid DNA was then used to generate the recombinant baculovirus. For protein expression, 10 mL of baculovirus was added to 1 L of Sf21 cells at a density of 1×10^6 cells/mL. The infected Sf21 cells were grown for 72 h in Sf‐900 III SFM medium (Thermo Fischer Scientific) at 27 °C. Cells were harvested by centrifugation and re‐suspended in running buffer (100 mM Tris pH 8.0, 150 mM NaCl, 1 mM EDTA and 1 mM DTT) supplemented with 10 mM MgCl2, benzonase and cOmplete protease inhibitors (Merck). […] The clarified lysate was then loaded onto a 5 mL Strep‐Tactin Superflow high capacity column (IBA) pre‐equilibrated in running buffer. After sample loading and washing, the TwinStrepII‐GST‐HDAC10 protein was eluted in running buffer supplemented with 5 mM desthiobiotin (IBA). The elution fractions containing TwinStrepII‐GST‐HDAC10 were pooled and concentrated before being injected onto a HiLoad 16/600 Superdex 200 pg size exclusion chromatography column (GE Healthcare) pre‐equilibrated with 25 mM HEPES/NaCl pH 7.5, 150 mM NaCl, 0.5 mM EDTA, 1 mM DTT and 10 % glycerol. Samples were eluted from the size exclusion chromatography column in the same buffer, flash‐frozen in liquid N2 and stored at −80 °C.
The TR‐FRET measurements of the monohydroxamic acids in this manuscript were measured in the original assay format, which is described directly below this paragraph. The TR‐FRET measurements of the dihydroxamic acids in this manuscript were measured in the modified format, which is described two paragraphs below this one.
The concentrations of reagents in 10 μL final assay volume were 3 nM GST‐HDAC10, 30 nM “Tubastatin‐Alexa647‐Tracer” and 0.5 nM Eu‐anti‐GST. GST‐HDAC10 and LanthaScreen™ Eu‐anti‐GST Antibody were purchased from Life Technologies, and the Tubastatin‐Alexa647‐Tracer was synthesized in‐house as previously described.19 An 11‐fold 1 : 3‐serial dilution of compounds starting at 2 mM was prepared in 384 well pp‐plates (Greiner) from 10 mM stocks in DMSO and 1 μL was transferred to assay plates. Nine μL of the reagent‐mix was added and the plate was incubated for 1 h at RT before TR‐FRET was measured in an EnVision™ plate reader equipped with a TR‐FRET Laser module. […] Percent inhibition was calculated for each well from negative control wells containing 2 % DMSO and positive control wells containing 20 μM SAHA. The resulting dose‐response curves were fitted in ActivityBase (IDBS) using a four‐parameter logistic model and pIC50‐values were calculated.
After drug dosing to the premixed assay reagents in buffer, plates were shaken (800 rpm orbital shaker, 30 s), centrifuged (300 g, 1 min) and incubated at room temperature in the dark for 60 min. TR‐FRET was measured with a CLARIOstar (BMG Labtech) plate reader, equipped with TR‐FRET filters.
For orientation: In TR-FRET formats the signal depends on donor and acceptor labels being close together.

Assay [3] addresses T2, HDAC10. Also noted: host or cells: Sf21 insect cells (baculovirus); method as in PMID 30964290. Particulars: previously shown; cited from earlier work.

For `CN(C)Cc1cn(Cc2ccc(C(=O)NO)cc2)c2ccccc12` [Compound 1b], the IC50 in assay [1] was 955 nM; in assay [2] it was 5.25 nM. Besides, the “selectivity for HDAC10 over HDACs 1, 2, and 3” value in assay [3] was greater than 100 fold.
